Laboratory results as given in patent publication US4960788A, “Pyrrolidone-2 compounds and their use for central analgesic activity” (priority 1988, dated 1990).
Where two headings read alike, the source gives them in different places.

Legend:
[1] = hot plate test on mouse (central analgesic activity); assay type: in vivo
Description: The compounds object of the present invention were tested in vivo in order to evaluate the central analgesic activity.
The hot plate test was carried out on mouse according to the method described by Eddy et al. (J. Pharmacol., 98, 121, 1950). The compounds were administered by systemic route (oral and subcutaneous). The analgesic activity was expressed as 50% effective dose (ED50).
In table 3 the results obtained for some representative compounds of formula I are reported.

[2] = test system: guinea-pig isolated ileum; assay: morphine-like activity on guinea-pig isolated ileum (inhibition of electrically induced contractions); assay type: cell-based; conditions: inhibition of 50% of contraction, electric stimulation 0.1 Hz-0.5 msec.
Description: The experiments were carried out according to the method described by Goldstein and Schultz (Br. J. Pharmacol., 48, 655, 1975) which is based on the capacity of the molecules showing an agonist activity on opioid receptors to inhibit the contractions of smooth muscles of guinea-pig ileum induced by electric stimulation (0.1 Hz-0.5 msec.).
The pharmacological activity was expressed as the necessary concentration (mM) to inhibit 50% of contraction (IC50).

[3] = Jumping test on mouse (capacity to induce physical dependence); assay type: in vivo; conditions: Naloxone 10 mg/kg i.p. 4 hours after last administration, 15 minutes
Description: The compounds object of the present invention were tested in vivo in order to evaluate the capacity to induce physical dependence. The Jumping test described by Sealens et al. [Committee on Problems of Drug Dependence, vol. 2, (1971), page 1310] was used.
After 4 hours from the last administration, the animals were treated with Naloxone (10 mg/kg i.p.) and the number of jumps taken by the animals during the period of 15 minutes after the administration of Naloxone was counted.
In table 4, for exemplifying purposes, the percentage of jumping animals obtained for a compound of formula I is reported.

[4] = target: T1, opioid receptors (Rattus norvegicus, UniProt P33535); assay: competition for binding of [^3 H]-dihydromorphine (DHM) to opioid receptors in rat-brain homogenate; design: species or system rat (Sprague-Dawley); conditions: 1 nM ^3 H-DHM; 25° C., 30 minutes; read-out: IC50 for specific binding of ^3 H-DHM to rat-brain homogenate
T1 construct: opioid receptors in rat-brain homogenate; from tissue; host or cells: rat brain (Sprague-Dawley) without cerebellum, homogenate / crude membrane pellet
T1 sequence (P33535 whole entry): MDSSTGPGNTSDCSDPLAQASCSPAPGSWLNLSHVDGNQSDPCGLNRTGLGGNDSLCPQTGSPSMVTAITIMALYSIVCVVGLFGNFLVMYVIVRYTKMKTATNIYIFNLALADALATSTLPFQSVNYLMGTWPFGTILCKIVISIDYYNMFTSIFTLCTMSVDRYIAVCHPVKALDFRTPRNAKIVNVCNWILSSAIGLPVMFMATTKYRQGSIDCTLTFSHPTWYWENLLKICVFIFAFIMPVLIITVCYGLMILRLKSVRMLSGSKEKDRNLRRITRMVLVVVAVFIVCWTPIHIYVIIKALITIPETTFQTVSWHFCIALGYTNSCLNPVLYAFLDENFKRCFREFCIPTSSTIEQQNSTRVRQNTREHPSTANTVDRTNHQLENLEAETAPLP
Description: (1) Evaluation of the competition for binding of [^3 H]-dihydromorphine(DHM) to opioid receptors in rat-brain homogenate
The experiments were carried out according to the method described by Simon et al. [Proc. Nat. Acad. Sci. U.S.A., 70, pp. 1947-1949, (1973)].
Sprague-Dawley rats weighing about 150 g were used.
The animals were decapitated and, after removal of cerebellum, the brains were homogenized in […] Tris-HCl buffer (pH 7.4) containing 0.32M saccharose. The homogenate was centrifugated at 1000 rpm for 10 minutes and the supranatant was centrifugated again at 20000 rpm for 20 minutes.
The obtained pellet was suspended in a homogenization buffer without saccharose up to a protein concentration of 2 mg/ml. The incubating system consisted in: 500 μl of homogenate (1 mg of proteins), 390 μl of 50 mM Tris-HCl buffer (pH 7.4), 100 μl of a solution at different concentrations of the compounds of formula I or of 10 μM Naloxone for the determination of the aspecific binding and 10 μl of ^3 H-DHM (specific activity […], 1 nM final concentration). The mixture was incubated at 25° C. for 30 minutes after the addition of the radioactive binder.
Then, the samples were filtered through Whatman GF/B filters, washed twice with 3 ml volumes of buffer and dried in oven at 70° C. Filters were put in scintillation vials with 15 ml of Filter Count (Packard) scintillation cocktail and the radioactivity was evaluated by a Packard Tricarb 4530 scintillation counter with 60% efficiency.
The activity was expressed as inhibiting concentration (IC50) 50% of the binding of ^3 H-DHM.

[5] = sc, subcutaneous, mouse hot plate test, read-out: Analgesic activity ED50 (C.L. 95%), s.c.
[6] = oral, mouse hot plate test, read-out: Analgesic activity ED50 (C.L. 95%), os

SMILES: O=C1CC[C@@H]([C@@H](O)CN(C2CCCC2)C2CCCC2)N1Cc1ccccc1Cl [Compound 36, (1S)-1-[(5S)-1-[(2-chlorophenyl)methyl]-2-oxo-5-pyrrolidinyl]-2-dicyclopentylaminoethanol]
- ED50 [1, 5]: 4.7 mg/kg
- IC50 ([2]; Cavia porcellus): 4.06 nM

SMILES: CC[C@@H](C)N(C[C@@H](O)[C@H]1CCC(=O)N1Cc1ccccc1Cl)[C@H](C)CC [Compound 4, (1R)-1-[(5R)-1-[(2-chlorophenyl)methyl]-2-oxo-5-pyrrolidinyl]-2-[(2R,2'R)-disec.butylamino]ethanol]
- ED50 [1, 5]: 3.8 mg/kg
- IC50 ([2]; Cavia porcellus): 8.7 nM

SMILES: CC[C@@H](C)N(C[C@H](O)[C@@H]1CCC(=O)N1Cc1ccccc1Cl)[C@H](C)CC [Compound 1, (1S)-1-[(5S)-1-[(2-chlorophenyl)methyl]-2-oxo-5-pyrrolidinyl]-2-[(2R,2'R)-disec.butylamino]ethanol]
- Percentage of jumping animals (total dose 3.8 mg/kg i.p.) ([3]; total dose 3.8 mg/kg i.p.): 5%
- ED50 [1, 6]: 2.6 mg/kg
- ED50 [1, 5]: 0.011 mg/kg
- IC50 [4]: 0.9 nM
- IC50 ([2]; Cavia porcellus): 0.03 nM

SMILES: CC[C@@H](C)N(C[C@H](O)[C@@H]1CCC(=O)N1Cc1cccc(C(F)(F)F)c1)[C@H](C)CC [Compound 24, (1S)-1-[(5S)-2-oxo-1-[(3-trifluoromethylphenyl)methyl]-5-pyrrolidinyl]-2-[(2R,2'R)-disec.butylamino]ethanol]
- ED50 [1, 5]: 0.5 mg/kg
- IC50 ([2]; Cavia porcellus): 2.9 nM

SMILES: CC(C)N(C[C@H](O)[C@@H]1CCC(=O)N1Cc1ccccc1Cl)C(C)C [Compound 34, (1S)-1-[(5S)-1-[(2-chlorophenyl)methyl]-2-oxo-5-pyrrolidinyl]-2-diisopropylaminoethanol]
- IC50 ([2]; Cavia porcellus): 44.7 nM

SMILES: CC[C@@H](C)N(C[C@H](O)[C@@H]1CCC(=O)N1Cc1ccccc1Cl)[C@@H](C)CC [Compound 8, (1S)-1-[(5S)-1-[(2-chlorophenyl)methyl]-2-oxo-5-pyrrolidinyl]-2-[(2R,2'S)-disec.butylamino]ethanol]
- ED50 [1, 5]: 1.4 mg/kg
- IC50 ([2]; Cavia porcellus): 44 nM

SMILES: CC[C@@H](C)N(C[C@@H](O)[C@@H]1CCC(=O)N1Cc1ccccc1Cl)[C@@H](C)CC [Compound 7, (1R)-1-[(5S)-1-[(2-chlorophenyl)methyl]-2-oxo-5-pyrrolidinyl]-2-[(2R,2'S)-disec.butylamino]ethanol]
- IC50 ([2]; Cavia porcellus): 70 nM

SMILES: CC[C@@H](C)N(C[C@H](O)[C@H]1CCC(=O)N1Cc1ccccc1Cl)[C@H](C)CC [Compound 3, (1S)-1-[(5R)-1-[(2-chlorophenyl)methyl]-2-oxo-5-pyrrolidinyl]-2-[(2R,2'R)-disec.butylamino]ethanol]
- IC50 ([2]; Cavia porcellus): 4.6 nM

SMILES: CC[C@@H](C)N(C[C@H](O)[C@@H]1CCC(=O)N1Cc1cc(Br)no1)[C@H](C)CC [Compound 22, (1S)-1-[(5S)-1-(3-bromo-5-isoxazolylmethyl)-2-oxo-5-pyrrolidinyl]-2-[(2R,2'R)-disec.butylamino]ethanol]
- ED50 [1, 5]: 1 mg/kg
- IC50 [4]: 9.4 nM
- IC50 ([2]; Cavia porcellus): 4.96 nM

SMILES: CN1CC[C@]23c4c5ccc(O)c4O[C@H]2[C@@H](O)C=C[C@H]3[C@H]1C5 [morphine, reference compound]
- Percentage of jumping animals (total dose 156.0 mg/kg i.p.) ([3]; total dose 156.0 mg/kg i.p.): 80%
- ED50 ([1]; Mus musculus, po, read-out: Analgesic activity ED50 (C.L. 95%), os): 18 mg/kg
- ED50 ([1]; Mus musculus, sc, read-out: Analgesic activity ED50 (C.L. 95%), s.c.): 3.5 mg/kg

SMILES: CCC(CC)N(C[C@H](O)[C@@H]1CCC(=O)N1Cc1ccccc1Cl)C(CC)CC [Compound 40, (1S)-1-[(5S)-1-[(2-chlorophenyl)methyl]-2-oxo-5-pyrrolidinyl]-2-[bis(1-ethylpropyl)amino]ethanol]
- IC50 ([2]; Cavia porcellus): 60 nM

SMILES: CC[C@@H](C)N(C[C@H](O)[C@@H]1CCC(=O)N1Cc1ccccc1Cl)C(C)C [Compound 38, (1S)-1-[(5S)-1-[(2-chlorophenyl)methyl]-2-oxo-5-pyrrolidinyl]-2-[[(R)-sec.butyl]isopropylamino]ethanol]
- ED50 [1, 5]: 1.1 mg/kg
- IC50 ([2]; Cavia porcellus): 21.5 nM

SMILES: CC[C@@H](C)N(C[C@H](O)[C@@H]1CCC(=O)N1Cc1ccc(Cl)c(Cl)c1)[C@H](C)CC [Compound 20, (1S)-1-[(5S)-1-[(3,4-dichlorophenyl)methyl]-2-oxo-5-pyrrolidinyl]-2-[(2R,2'R)-disec.butylamino]ethanol]
- ED50 [1, 5]: 0.28 mg/kg
- IC50 ([2]; Cavia porcellus): 0.23 nM

SMILES: CC[C@@H](C)N(C[C@@H](O)[C@@H]1CCC(=O)N1Cc1ccc(Cl)c(Cl)c1)[C@H](C)CC [Compound 19, (1R)-1-[(5S)-1-[(3,4-dichlorophenyl)methyl]-2-oxo-5-pyrrolidinyl]-2-[(2R,2'R)-disec.butylamino]ethanol]
- IC50 ([2]; Cavia porcellus): 0.77 nM

SMILES: CC[C@@H](C)N(C[C@H](O)[C@@H]1CCC(=O)N1Cc1ccccc1)[C@H](C)CC [Compound 14, (1S)-1-[(5S)-2-oxo-1-(phenylmethyl)-5-pyrrolidinyl]-2-[(2R,2'R)-disec.butylamino]ethanol]
- ED50 [1, 6]: 6.5 mg/kg
- ED50 [1, 5]: 0.04 mg/kg
- IC50 [4]: 3.3 nM
- IC50 ([2]; Cavia porcellus): 0.43 nM

SMILES: CC[C@@H](C)N(C[C@@H](O)[C@@H]1CCC(=O)N1Cc1ccccc1F)[C@H](C)CC [Compound 15, (1R)-1-[(5S)-1-[(2-fluorophenyl)methyl]-2-oxo-5-pyrrolidinyl]-2-[(2R,2'R)-disec.butylamino]ethanol]
- IC50 ([2]; Cavia porcellus): 40 nM

SMILES: CC[C@@H](C)N(C[C@@H](O)[C@H]1CCC(=O)N1Cc1ccccc1Cl)[C@@H](C)CC [Compound 12, (1R)-1-[(5R)-1-[(2-chlorophenyl)methyl]-2-oxo-5-pyrrolidinyl]-2-[(2R,2'S)-disec.butylamino]ethanol]
- IC50 ([2]; Cavia porcellus): 83 nM

SMILES: CC[C@@H](C)N(C[C@H](O)[C@@H]1CCC(=O)N1Cc1ccc(Br)cc1)[C@H](C)CC [Compound 26, (1S)-1-[(5S)-1-[(4-bromophenyl)methyl]-2-oxo-5-pyrrolidinyl]-2-[(2R,2'R)-disec.butylamino]ethanol]
- ED50 [1, 5]: 0.03 mg/kg
- IC50 ([2]; Cavia porcellus): 0.04 nM

SMILES: CC[C@@H](C)N(C[C@H](O)[C@@H]1CCC(=O)N1Cc1cccc(OC)c1)[C@H](C)CC [Compound 18, (1S)-1-[(5S)-1-[(3-methoxyphenyl)methyl]-2-oxo-5-pyrrolidinyl]-2-[(2R,2'R)-disec.butylamino]ethanol]
- ED50 [1, 5]: 0.07 mg/kg
- IC50 ([2]; Cavia porcellus): 0.28 nM

SMILES: CC[C@@H](C)N(C[C@H](O)[C@@H]1CCC(=O)N1Cc1ccccc1F)[C@H](C)CC [Compound 16, (1S)-1-[(5S)-1-[(2-fluorophenyl)methyl]-2-oxo-5-pyrrolidinyl]-2-[(2R,2'R)-disec.butylamino]ethanol]
- ED50 [1, 6]: 5.8 mg/kg
- ED50 [1, 5]: 0.03 mg/kg
- IC50 [4]: 2.5 nM
- IC50 ([2]; Cavia porcellus): 0.29 nM

SMILES: CC[C@H](C)N(C[C@@H](O)[C@@H]1CCC(=O)N1Cc1ccccc1Cl)[C@@H](C)CC [Compound 5, (1R)-1-[(5S)-1-[(2-chlorophenyl)methyl]-2-oxo-5-pyrrolidinyl]-2-[(2S,2'S)-disec.butylamino]ethanol]
- IC50 ([2]; Cavia porcellus): 50 nM

SMILES: CC[C@@H](C)N(CC(O)C1CCCC(=O)N1Cc1ccccc1Cl)[C@H](C)CC (stereo partly drawn) [Compound 43, 1-[2-[(2-chlorophenyl)methyl]-2-oxo-6-piperidinyl]-2-[(2R,2'R)-disec.butylamino]ethanol]
- Analgesic activity ED50 (C.L. 95%), s.c. ([1]; subcutaneous, mouse hot plate test): 0.1 mg/kg
- IC50 [2]: 0.5 nM
